In PubChem BioAssay (NCI):
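Briefly, cells in 96-well plates were exposed to five compound concentrations for 48 h, and endpoints were estimated by linear interpolation. GI50 is the concentration that inhibits growth by half. Definition used: TGI = concentration required for complete inhibition of growth.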

Experiments:
Assay in all cases: growth of human tumour cells (NCI), 48 h
SNB-75 CNS = system: SNB-75 CNS
SF-268 CNS = system: SF-268 CNS
CAKI-1 renal = system: CAKI-1 renal
HS 578T breast = system: HS 578T breast
EKVX NSCLC = system: EKVX NSCLC
LOX IMVI melanoma = system: LOX IMVI melanoma
HT29 colon = system: HT29 colon
MOLT-4 leukemia = system: MOLT-4 leukemia
HOP-62 NSCLC = system: HOP-62 NSCLC
OVCAR-8 ovarian = system: OVCAR-8 ovarian
RXF 393 renal = system: RXF 393 renal
K-562 leukemia = system: K-562 leukemia
RPMI-8226 leukemia = system: RPMI-8226 leukemia
MDA-MB-231 breast = system: MDA-MB-231 breast
DU-145 prostate = system: DU-145 prostate
U251 CNS = system: U251 CNS
NCI-H460 lung = system: NCI-H460 lung
NCI/ADR-RES ovarian = system: NCI/ADR-RES ovarian
UACC-257 melanoma = system: UACC-257 melanoma
T-47D breast = system: T-47D breast
NCI-H522 lung = system: NCI-H522 lung
A549 NSCLC = system: A549 NSCLC
HL-60(TB) leukemia = system: HL-60(TB) leukemia
CCRF-CEM leukemia = system: CCRF-CEM leukemia
TK-10 renal = system: TK-10 renal
SK-MEL-5 melanoma = system: SK-MEL-5 melanoma
SR leukemia = system: SR leukemia
SK-MEL-2 melanoma = system: SK-MEL-2 melanoma
HCC-2998 colon = system: HCC-2998 colon

## COC(=O)/C=C1/SC(=Nc2ccc(C(F)(F)F)cc2)N(CCc2c[nH]c3ccc(O)cc23)C1=O
SNB-75 CNS
  GI50: 2270 nM
  TGI: 9680 nM
SF-268 CNS
  GI50: 1690 nM
  TGI: 5360 nM
CAKI-1 renal
  GI50: 2710 nM
  TGI: > 100000 nM
HS 578T breast
  GI50: 1870 nM
  TGI: 5780 nM
EKVX NSCLC
  GI50: 3200 nM
  TGI: > 100000 nM
LOX IMVI melanoma
  GI50: 1250 nM
  TGI: 2680 nM
HT29 colon
  GI50: 1750 nM
  TGI: 3430 nM
MOLT-4 leukemia
  GI50: 349 nM
  TGI: 10100 nM
HOP-62 NSCLC
  GI50: 1750 nM
  TGI: 3850 nM
OVCAR-8 ovarian
  GI50: 1620 nM
  TGI: 6040 nM
RXF 393 renal
  GI50: 1160 nM
  TGI: 2590 nM
K-562 leukemia
  GI50: 1550 nM
  TGI: > 100000 nM
RPMI-8226 leukemia
  GI50: 722 nM
  TGI: 3260 nM
MDA-MB-231 breast
  GI50: 1910 nM
  TGI: 4670 nM
DU-145 prostate
  GI50: 2210 nM
  TGI: > 100000 nM
U251 CNS
  GI50: 1460 nM
  TGI: 3050 nM
NCI-H460 lung
  GI50: 1870 nM
  TGI: 3790 nM
NCI/ADR-RES ovarian
  GI50: 2160 nM
  TGI: 8960 nM
UACC-257 melanoma
  GI50: 1940 nM
  TGI: 5170 nM
T-47D breast
  GI50: 2070 nM
  TGI: 9640 nM
NCI-H522 lung
  GI50: 1500 nM
  TGI: 3250 nM
A549 NSCLC
  GI50: 3050 nM
  TGI: > 100000 nM
HL-60(TB) leukemia
  GI50: 1570 nM
  TGI: 6650 nM
CCRF-CEM leukemia
  GI50: 569 nM
  TGI: 6690 nM
TK-10 renal
  GI50: 2250 nM
  TGI: 5760 nM
SK-MEL-5 melanoma
  GI50: 1860 nM
  TGI: 3990 nM
SR leukemia
  GI50: 416 nM
  TGI: 5250 nM
SK-MEL-2 melanoma
  GI50: 1520 nM
  TGI: 3220 nM
HCC-2998 colon
  GI50: 1940 nM
  TGI: 3560 nM
